The values below come from patent publication US20240345094A1, “DOUBLE FRAGMENTATION ISOBARIC TAGGING” (Saint Louis University, priority 2023, published 2024).

“Also recorded” adds a separate entry of the source.

For the test, the system named is Bovine aortic endothelial cells. Description: Changes in thiol metabolism upon γ-glutamyl-cysteine synthetase inhibition (6-plex tagged LC-MS of cell lysates). The format is cell-based. The settings on record: 250 μM BSO for 16 hours vs reduced-serum media control. As to the method:
Cell culture and lysis: Bovine aortic endothelial cells between passage number 7 and 10 were cultured to confluency in 6 cm plates with Dulbecco's modified eagle medium (DMEM) supplemented with 10% fetal bovine serum (FBS) at 37° C. and 5% CO2. Cell media was swapped with DMEM supplemented with 2% FBS and 250 μM BSO. Control plates were swapped to DMEM with 2% FBS. All plates were lysed after 16 hours as previously described (Filla, L. A., et al., Anal Bioanal Chem 2019, 411 (24), 6399-6407). Briefly, the media was removed and the cells were rapidly rinsed with 1 mL of phosphate-buffered saline. Cells were lysed with the addition of 500 μL of cold 80/20 MeOH/H2O containing 100 mM formic acid and 5 μM of D4 homocysteine as an internal standard. Plates were placed on a dry ice-ethanol bath and the cell contents were collected, then centrifuged at 21,100×g for three minutes. The supernatant was immediately collected and stored on dry ice until derivatization.
Thiol Derivatization: Thiol metabolite stocks were created as individual 500 μM vials with 50/50 H2O/MeOH containing 20 mM formic acid and stored at −20° C. to minimize degradation. Lower concentration stocks were produced by further dilution and derivatized immediately. For cell lysate reactions, 100 μL of the lysate was used for each reaction. Thiol metabolites were added to 100 μL of 100 mM ammonium bicarbonate pH 8. An isotopic iodide tag was then immediately added (100 μL, 100 μM) and left at room temperature to react for 16 hours to ensure a complete reaction. All iodide tags and reactions were handled in the dark to prevent degradation. After the reaction was completed, the samples were mixed with the other isotope variants, dried in a vacuum centrifuge, and reconstituted to 100 μL in the starting mobile phase conditions.
Liquid Chromatography: Fused silica capillary (Polymicro Technologies, Phoenix, AZ) was used to fabricate columns with an inner diameter of 50 μm as previously described (Edwards, J. L., et al, Journal of Chromatography A 2007, 1172 (2), 127-134). Briefly, 50 μm inner diameter capillary was cut to 25 cm, a photopolymerized frit placed 30 mm from the end, then a tip pulled with a Sutter P2000 micropipette puller and etched in 50% HF. The capillary bed was packed to 20 cm with Atlantis silica HILIC 3 μm particles (Waters Corp, Milford, MA). After equilibration the capillary was cut to 17.5 cm for analysis. Flow was delivered by a Thermo Vanquish LC (Thermo Fisher Scientific, Waltham, MA) connected to a stainless steel tee to split the flow. A 50 μm×100 cm open capillary was used as the split to direct 115 nL of the total flow and 4 nL injections to the capillary column (split ratio 1:1500 for bulk flow of 175 μL/min and injection of 6 μL). The split ratio was determined by calculating flow through the capillary based on the experimental dead time and column dimensions. Mobile phase A was pure acetonitrile and mobile phase B was 25 mM ammonium acetate in 80/20 (water/ACN) with 0.05% acetic acid as an additive. The gradient is supplied in Table 1 below.
MS Analysis: A Q-Exactive mass spectrometer (Thermo Fisher Scientific, Waltham, MA) was used for all analyses. An MS^1 survey scan operated at a resolution of 17.5K with an ion injection time of 50 ms and AGC of 1e^6 for m/z 250-650. […] These MS^2 scans operated at a resolution of 140K with an ion injection time of 200 ms, AGC of 1e^5, and the optimized collision energy determined for each analyte. […]

On to `CCCCS(=N)(=O)CCC(N)C(=O)O` (centres unmarked) [BSO, Buthionine sulfoximine], for which, for the setting “n=3, FIG. 5B”, the GSH level change entry was “Significant decreases; also recorded: glutathione depletion was observed” and the cysteinyl-glycine level change result is “Significant decreases”. Also, under “n=3, near the limit of detection”, the Glutamyl-cysteine level change result was “did not change significantly”. Besides, for the setting “n=3, trended upward”, the cysteine level change entry is “did not change” and the homocysteine level change entry is recorded as “did not change”.
